The text below walks through data of patent publication US20080090805A1, “CB-1 MODULATING COMPOUNDS AND THEIR USE” (ACADIA PHARMACEUTICALS INC., priority 2005, published 2008).

The test deals with native CB1 receptors (Rattus norvegicus, UniProt P20272). Kind of test: CB1 receptor rat binding assay ([3H]SR141716A, rat brain membranes). The following applies: rat brain membranes, [3H]SR141716A; for Ki: read-out: Binding rat pKi (converted).
native CB1 receptors, sequence (P20272 whole entry): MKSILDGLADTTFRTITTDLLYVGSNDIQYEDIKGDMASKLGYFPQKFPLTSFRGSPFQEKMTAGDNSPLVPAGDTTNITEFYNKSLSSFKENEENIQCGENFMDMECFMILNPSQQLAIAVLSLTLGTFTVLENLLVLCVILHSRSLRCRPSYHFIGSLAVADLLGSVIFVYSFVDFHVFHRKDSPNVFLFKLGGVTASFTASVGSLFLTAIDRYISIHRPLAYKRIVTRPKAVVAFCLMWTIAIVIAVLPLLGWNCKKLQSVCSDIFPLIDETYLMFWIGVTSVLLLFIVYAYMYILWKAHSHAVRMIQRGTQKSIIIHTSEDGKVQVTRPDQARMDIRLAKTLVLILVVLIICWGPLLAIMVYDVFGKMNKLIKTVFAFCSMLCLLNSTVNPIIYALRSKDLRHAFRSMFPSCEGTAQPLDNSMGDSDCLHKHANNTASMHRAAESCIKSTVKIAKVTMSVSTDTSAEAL

In the case of `O=C(NCc1cccc(Cl)c1)c1ccc2c(c1)N=C(C1CCCCC1)c1ccccc1S2` [drawing 1338], the Ki is 3.98 nM.
Regarding `O=C(NCCc1ccncc1)c1ccc2c(c1)N=C(c1ccc(Cl)cc1)c1ccccc1S2` [drawing 1339], the “Binding rat Inh %” value is 96% and the Ki was 25.1 nM.
In the case of `O=C(NCCc1ccccn1)c1ccc2c(c1)N=C(c1ccc(Cl)cc1)c1ccccc1S2` [drawing 1340], the “Binding rat Inh %” value amounted to 60% and the Ki is 25.1 nM.
For `O=C(NCc1ccccc1Cl)c1ccc2c(c1)N=C(c1ccc(Cl)cc1)c1ccccc1S2` [drawing 1341], the Ki is 25.1 nM.
Regarding `O=C(NN1CCCCCC1)c1ccc2c(c1)N=C(c1ccccc1F)c1ccccc1S2` [drawing 1342], the “Binding rat Inh %” value is listed as 101% and the Ki is 25.1 nM.
In the case of `O=C(NCc1ccccc1)c1ccc2c(c1)N=C(C1CCCCC1)c1ccccc1S2` [drawing 1343], the Ki was 3.98 nM.
In the case of `Cc1ccsc1C1=Nc2cc(C(=O)NCc3cccs3)ccc2Sc2ccccc21` [drawing 1344], the “Binding rat Inh %” value was determined as 99% and the Ki was 3.98 nM.
Turning to `O=C(NCCc1ccc(Cl)cc1)c1ccc2c(c1)N=C(N1CCCCC1)c1ccccc1S2` [drawing 1345], the Ki is 3.98 nM.
`Cc1ccc(CNC(=O)c2ccc3c(c2)N=C(c2ccsc2)c2ccccc2S3)o1` [drawing 1346]: the “Binding rat Inh %” value is 89% and the Ki was 3.98 nM.
As to `CCCCNC(=O)c1ccc2c(c1)N=C(c1ccccc1F)c1ccccc1S2` [drawing 1348], the Ki was 25.1 nM.
`CC(C)CCNC(=O)c1ccc2c(c1)N=C(c1ccccn1)c1ccccc1S2` [drawing 1349]: the “Binding rat Inh %” value was 86% and the Ki was 31.6 nM.
As for `CCOC(=O)c1ccc(C2=Nc3cc(C(=O)NCc4cccnc4)ccc3Sc3ccccc32)cc1` [drawing 1350], the “Binding rat Inh %” value is reported as 90% and the Ki is 31.6 nM.
For `COc1ccc(C2=Nc3cc(C(=O)NCCC(C)C)ccc3Sc3ccccc32)cc1` [drawing 1351], the “Binding rat Inh %” value is reported as 81% and the Ki was 3.98 nM.
Consider `O=C(NCc1ccc(F)cc1)c1ccc2c(c1)N=C(c1ccccc1)c1ccccc1S2` [drawing 1352], for which the Ki was 3.98 nM.
In the case of `Cc1cccc(C2=Nc3cc(C(=O)NCc4ccc(C)o4)ccc3Sc3ccccc32)n1` [drawing 1353], the “Binding rat Inh %” value is reported as 108% and the Ki was 3.98 nM.
Take `CC(C)CNC(=O)c1ccc2c(c1)N=C(c1ccc(Br)cc1)c1ccccc1S2` [drawing 1354]: the “Binding rat Inh %” value turned out to be 77% and the Ki is 3.98 nM.
For the molecule `O=C(NCc1ccccc1Br)c1ccc2c(c1)N=C(c1ccccc1F)c1ccccc1S2` [drawing 1355], the Ki was 31.6 nM.
Turning to `C[C@@H]1CCC[C@H](C)N1NC(=O)c1ccc2c(c1)N=C(c1ccc(F)cc1)c1ccccc1S2` [drawing 1356], the “Binding rat Inh %” value is reported as 108% and the Ki is 31.6 nM.
Regarding `CCCC1=Nc2cc(C(=O)NCCCc3ccccc3)ccc2Sc2ccccc21` [drawing 1357], the Ki was 31.6 nM.
In the case of `COCCNC(=O)c1ccc2c(c1)N=C(c1ccc(Br)cc1)c1ccccc1S2` [drawing 1358], the “Binding rat Inh %” value is listed as 89% and the Ki is 31.6 nM.
Regarding `CC(C)CNC(=O)c1ccc2c(c1)N=C(c1ccc(Cl)s1)c1ccc(F)cc1S2` [drawing 1359], the “Binding rat Inh %” value is listed as 95% and the Ki is 3.98 nM.
As for `O=C(NCCC(F)(F)F)c1ccc2c(c1)N=C(c1ccc(Cl)cc1)c1ccccc1S2` [drawing 1360], the “Binding rat Inh %” value is reported as 99% and the Ki was 3.98 nM.
Consider `CC(C)CNC(=O)c1ccc2c(c1)N=C(c1cccc(Cl)c1)c1ccccc1S2` [drawing 1361], for which the “Binding rat Inh %” value was determined as 99% and the Ki was 3.98 nM.
Take `CC(CNC(=O)c1ccc2c(c1)N=C(c1ccc(F)cc1)c1ccccc1S2)c1ccccc1` (stereo not drawn) [drawing 1362]: the Ki is 3.98 nM.
